Measured values from patent US20230002360A1, “Heterocycloalkyl compounds as CCR2 / CCR5 antagonists” (SHENZHEN LINGFANG BIOTECH CO.,LTD, priority 2019, published 2023).

Experiments:
CYP2D6 = molecular target: T1, CYP2D6 (Homo sapiens, UniProt P10635); experiment: Inhibition of human liver microsomal CYP2D6 (dextromethorphan probe); format: in vitro ADME; details: human liver microsomes, read-out: Half inhibitory concentration IC50, CYP2D6
T1 construct: from tissue; host or cells: human liver microsomes
Procedure: (§1) Experimental Example 2. Inhibition of human liver microsomal cytochrome P450 isoenzymes (CYP1A2, CYP2C9, CYP2C19, CYP2D6 and CYP3A4) activity
(§2) A total of 5 specific probe substrates of 5 CYP isozymes, which are phenacetin (PHenacetin, CYP1A2), diclofenac (Diclofenac, CYP2C9), (S)-mephenytoin ((S)-MepHenytoin, CYP2C19), dextromethorpHan (CYP2D6), and midazolam (Midazolam, CYP3A4), were incubated with human liver microsomes respectively. Then, reduced nicotinamide adenine dinucleotide phosphate (NADPH) was added to initiate reaction. After the reaction, the sample is processed and quantitatively detected for the concentrations of the five metabolites produced from the specific substrate, acetaminophen (AcetaminopHen), 4′-hydroxydiclofenac (4′-Hydroxydiclofenac), 4′-Hydroxymephenytoin (4′-HydroxymepHenytoin), Dextrorphan (DextrorpHan), and 1′-Hydroxymidazolam (1′-Hydroxymidazolam) by liquid chromatography-quadrupole mass spectrometry (LC-MS/MS) method to calculate the corresponding half inhibitory concentration (IC50).

CYP2C19 = molecular target: T2, CYP2C19 (Homo sapiens, UniProt P33261); experiment: Inhibition of human liver microsomal CYP2C19 ((S)-mephenytoin probe); format: in vitro ADME; details: human liver microsomes, read-out: Half inhibitory concentration IC50, CYP2C19
T2 construct: from tissue; host or cells: human liver microsomes
Procedure: as §1, §2

CYP2C9 = molecular target: T3, CYP2C9 (Homo sapiens, UniProt P11712); experiment: Inhibition of human liver microsomal CYP2C9 (diclofenac probe); format: in vitro ADME; details: human liver microsomes, read-out: Half inhibitory concentration IC50, CYP2C9
T3 construct: from tissue; host or cells: human liver microsomes
Procedure: as §1, §2

CYP1A2 = molecular target: T4, CYP1A2 (Homo sapiens, UniProt P05177); experiment: Inhibition of human liver microsomal CYP1A2 (phenacetin probe); format: in vitro ADME; details: human liver microsomes, read-out: Half inhibitory concentration IC50, CYP1A2
T4 construct: from tissue; host or cells: human liver microsomes
T4 sequence (P05177 1-516): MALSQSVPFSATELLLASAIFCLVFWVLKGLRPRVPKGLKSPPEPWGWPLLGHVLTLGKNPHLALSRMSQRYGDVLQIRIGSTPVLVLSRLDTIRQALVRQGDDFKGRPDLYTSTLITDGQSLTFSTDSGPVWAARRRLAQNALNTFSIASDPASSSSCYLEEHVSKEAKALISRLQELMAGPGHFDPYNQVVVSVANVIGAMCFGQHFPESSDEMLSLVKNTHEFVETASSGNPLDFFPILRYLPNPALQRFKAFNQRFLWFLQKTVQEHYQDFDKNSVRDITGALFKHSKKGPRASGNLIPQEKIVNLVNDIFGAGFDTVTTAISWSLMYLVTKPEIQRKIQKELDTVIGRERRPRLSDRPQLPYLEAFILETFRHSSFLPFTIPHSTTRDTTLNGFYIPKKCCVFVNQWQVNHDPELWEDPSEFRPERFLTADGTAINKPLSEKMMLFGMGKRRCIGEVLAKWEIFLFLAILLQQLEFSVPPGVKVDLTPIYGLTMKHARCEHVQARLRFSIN
Procedure: as §1, §2

CYP3A4 = molecular target: T5, CYP3A4 (Homo sapiens, UniProt P08684); experiment: Inhibition of human liver microsomal CYP3A4 (midazolam probe); format: in vitro ADME; details: for inhibitory effect on CYP3A4 (in words): conclusion from Table 2; for IC50: human liver microsomes, midazolam, read-out: Half inhibitory concentration IC50, CYP3A4-M
T5 construct: from tissue; host or cells: human liver microsomes
Procedure: Inhibition of human liver microsomal cytochrome P450 isoenzymes (CYP1A2, CYP2C9, CYP2C19, CYP2D6 and CYP3A4) activity
A total of 5 specific probe substrates of 5 CYP isozymes, which are phenacetin (PHenacetin, CYP1A2), diclofenac (Diclofenac, CYP2C9), (S)-mephenytoin ((S)-MepHenytoin, CYP2C19), dextromethorpHan (CYP2D6), and midazolam (Midazolam, CYP3A4), were incubated with human liver microsomes respectively. Then, reduced nicotinamide adenine dinucleotide phosphate (NADPH) was added to initiate reaction.

CCR2 = molecular target: T6, CCR2 (Homo sapiens, UniProt P41597); experiment: FLIPR calcium assay, CCR2 cell line; format: cell-based; details: HEK293 host cell, MCP-1 agonist, intracellular calcium signal; read-out: IC50 (nM) test results for FLIPR detection, CCR2
T6 construct: expressed in transfected cells; host or cells: HEK293 (clone C7, passage P6)
Procedure: (§3) The changes in intracellular calcium signal were detected by FLIPR Calcium assay, and the compound's IC50 value was used as an indicator to evaluate inhibitory effect of the compound on CCR2 and CCR5 receptors.
(§4) 1, Cell line: Cells were seeded and incubated overnight in an incubator at 37° C. and 5% CO2.
(§5) CCR2/CCR5 density: 1 M (20K/Well)
(§6) 2, Reagents: Fluo-4 Direct, (Invitrogen, Cat #f10471)
(§7) The compound was dissolved in DMSO to prepare a 10 mM solution, and the compound solution was placed in a nitrogen gas box.
(§8) MCP-1 was serially diluted with FLIPR assay buffer starting from 0.5 μM at a dilution ratio of 1:2 and a total of 10 gradients were diluted (final 100 nM). RANTES is serially diluted with FLIPR assay buffer starting from 0.5 μM at a dilution ratio of 1:3 and a total of 10 gradients were diluted (final 100 nM). According to the compound plate-map, 20 μL of the serially diluted compound buffers were added to each well of the DRC plate respectively.
(§9) The standard compound was diluted with DMSO 1:3 starting from 1 mM at a dilution ratio of 1:3 and a total of 11 gradients were diluted. The test compound was diluted with DMSO 1:3 starting from 2 mM at a dilution ratio of 1:3 and a total of 11 gradients were diluted.
(§10) c) taking the cell plate from the incubator, and gently distributing 20 μL of 2× Fluo-4 Direct non-washing loading buffer to each well of the 384-well cell culture plate using a pipette, wherein each of wells in the cell plate has a final volume of 40 μL.
(§11) d) Incubating at 37° C. and 5% CO2 for 50 minutes, and at room temperature for 10 minutes.
(§12) e) removing the cell plate from the incubator and placing in FLIPR, and putting the composite plate and the tip box into FLIPR.
(§13) 5) Calculating from Read 90 to the maximum allowable “maximum-minimum”, and calculating the EC80 value of each of cell lines by using FLIPR
(§14) 6) Preparing the reference agonist compound at a concentration of 5×EC80
(§15) 2) Transferring […] of the reference agonist compound at a concentration of 5×EC80 from the composite plate to the cell plate.
(§16) 3) Reading the fluorescence signal.
(§17) 4) Calculating from Read 90 to the maximum allowable “maximum-minimum”.
(§18) h) Analyzing the data and calculating the IC50 value of the compound by using Prism.

CCR5 = molecular target: T7, CCR5 (Homo sapiens, UniProt P51681); experiment: FLIPR calcium assay, CCR5 cell line; format: cell-based; details: HEK293 host cell, RANTES agonist, intracellular calcium signal; read-out: IC50 (nM) test results for FLIPR detection, CCR5
T7 construct: expressed in transfected cells; host or cells: HEK293 (clone C13, passage P4)
Procedure: as §3, §4, §5, §6, §7, §8, §9, §10, §11, §12, §13, §14, §15, §16, §17, §18

[1] = tested on: human liver microsomal cytochrome P450 isoenzymes; experiment: Inhibition of human liver microsomal cytochrome P450 isoenzymes, overall conclusion; format: in vitro ADME; details: conclusion from Table 2
Procedure: as §1, §2

T1 sequence (P10635 whole entry): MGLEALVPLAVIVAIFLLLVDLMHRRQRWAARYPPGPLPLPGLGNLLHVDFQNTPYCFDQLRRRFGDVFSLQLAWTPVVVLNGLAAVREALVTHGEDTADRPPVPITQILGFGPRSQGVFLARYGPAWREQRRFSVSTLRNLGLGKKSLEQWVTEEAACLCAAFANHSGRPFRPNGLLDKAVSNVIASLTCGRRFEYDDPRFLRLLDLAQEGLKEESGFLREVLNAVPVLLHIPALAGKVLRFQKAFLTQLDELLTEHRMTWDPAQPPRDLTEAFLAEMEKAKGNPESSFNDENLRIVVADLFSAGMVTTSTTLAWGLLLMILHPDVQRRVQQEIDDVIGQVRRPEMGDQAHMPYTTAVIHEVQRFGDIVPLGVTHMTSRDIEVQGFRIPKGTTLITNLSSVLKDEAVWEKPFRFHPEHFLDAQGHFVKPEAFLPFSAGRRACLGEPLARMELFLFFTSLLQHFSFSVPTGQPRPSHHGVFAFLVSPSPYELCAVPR
T5 sequence (P08684 whole entry): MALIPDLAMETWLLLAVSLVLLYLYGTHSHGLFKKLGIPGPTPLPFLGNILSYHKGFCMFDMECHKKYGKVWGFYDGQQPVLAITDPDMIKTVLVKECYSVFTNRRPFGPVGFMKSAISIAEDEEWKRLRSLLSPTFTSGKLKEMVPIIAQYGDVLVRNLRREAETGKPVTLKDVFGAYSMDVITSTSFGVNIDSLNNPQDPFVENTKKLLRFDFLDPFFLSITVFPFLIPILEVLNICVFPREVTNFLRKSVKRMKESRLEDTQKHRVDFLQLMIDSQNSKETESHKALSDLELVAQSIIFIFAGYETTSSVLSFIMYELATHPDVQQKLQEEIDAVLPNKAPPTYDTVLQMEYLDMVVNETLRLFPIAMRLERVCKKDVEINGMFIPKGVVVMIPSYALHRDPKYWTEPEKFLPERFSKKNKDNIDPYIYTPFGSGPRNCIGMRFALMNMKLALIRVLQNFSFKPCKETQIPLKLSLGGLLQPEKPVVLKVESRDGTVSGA
T3 sequence (P11712 whole entry): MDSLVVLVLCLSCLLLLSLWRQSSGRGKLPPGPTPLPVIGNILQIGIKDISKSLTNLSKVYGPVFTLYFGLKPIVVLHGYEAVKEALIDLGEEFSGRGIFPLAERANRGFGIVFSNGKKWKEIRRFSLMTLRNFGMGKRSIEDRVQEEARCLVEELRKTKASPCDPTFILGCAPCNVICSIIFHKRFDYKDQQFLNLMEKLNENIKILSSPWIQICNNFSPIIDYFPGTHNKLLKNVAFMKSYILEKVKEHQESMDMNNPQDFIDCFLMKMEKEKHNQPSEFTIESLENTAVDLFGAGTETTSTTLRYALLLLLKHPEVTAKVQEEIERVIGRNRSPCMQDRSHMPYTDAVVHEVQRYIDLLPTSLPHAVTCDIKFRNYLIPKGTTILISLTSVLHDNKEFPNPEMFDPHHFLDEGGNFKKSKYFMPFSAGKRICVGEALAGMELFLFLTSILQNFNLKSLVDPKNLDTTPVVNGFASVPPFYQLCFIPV
T6 sequence (P41597 whole entry, species assumed): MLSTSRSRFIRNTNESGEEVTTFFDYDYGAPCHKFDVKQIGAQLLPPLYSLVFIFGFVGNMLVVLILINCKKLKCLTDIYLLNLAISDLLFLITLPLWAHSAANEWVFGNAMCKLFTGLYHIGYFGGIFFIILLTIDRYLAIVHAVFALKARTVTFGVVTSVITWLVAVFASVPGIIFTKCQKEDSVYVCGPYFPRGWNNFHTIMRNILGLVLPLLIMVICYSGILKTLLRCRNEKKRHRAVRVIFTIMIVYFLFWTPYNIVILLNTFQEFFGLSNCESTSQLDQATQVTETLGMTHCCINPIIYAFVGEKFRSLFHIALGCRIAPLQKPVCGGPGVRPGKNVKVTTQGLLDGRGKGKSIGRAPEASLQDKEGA
T2 sequence (P33261 whole entry): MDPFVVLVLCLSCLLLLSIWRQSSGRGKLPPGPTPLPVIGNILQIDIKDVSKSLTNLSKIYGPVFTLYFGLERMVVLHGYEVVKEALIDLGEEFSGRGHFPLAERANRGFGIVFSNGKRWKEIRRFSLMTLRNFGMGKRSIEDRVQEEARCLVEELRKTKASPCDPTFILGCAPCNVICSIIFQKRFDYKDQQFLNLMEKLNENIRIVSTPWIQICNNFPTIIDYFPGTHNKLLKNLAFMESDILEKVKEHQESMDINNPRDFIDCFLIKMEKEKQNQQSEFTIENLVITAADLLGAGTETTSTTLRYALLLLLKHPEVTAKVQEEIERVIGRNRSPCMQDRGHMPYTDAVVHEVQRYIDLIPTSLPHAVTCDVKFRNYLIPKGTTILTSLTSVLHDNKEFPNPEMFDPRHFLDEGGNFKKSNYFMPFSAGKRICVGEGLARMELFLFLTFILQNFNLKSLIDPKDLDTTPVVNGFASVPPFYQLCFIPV
T7 sequence (P51681 whole entry, species assumed): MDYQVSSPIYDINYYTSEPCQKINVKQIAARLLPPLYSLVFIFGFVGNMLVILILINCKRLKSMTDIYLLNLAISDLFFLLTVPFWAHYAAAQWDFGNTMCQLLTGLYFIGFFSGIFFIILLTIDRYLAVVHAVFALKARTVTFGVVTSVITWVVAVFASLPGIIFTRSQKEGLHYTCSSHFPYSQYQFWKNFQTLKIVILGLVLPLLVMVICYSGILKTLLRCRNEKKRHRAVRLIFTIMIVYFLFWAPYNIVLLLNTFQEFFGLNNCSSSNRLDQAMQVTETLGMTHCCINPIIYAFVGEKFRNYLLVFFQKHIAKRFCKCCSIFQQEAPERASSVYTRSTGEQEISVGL

SMILES	IC50 (CCR2) [nM]	IC50 (CCR5) [nM]	further results
CCCCOCCOc1ccc(-c2ccc3c(c2)/C=C(/C(=O)Nc2ccc([S@@+]([O-])Cc4cncn4CCC)cc2)CCCN3CC(C)C)cc1 [(CVC), Cenicriviroc, reference compound]	–	–	IC50 (CYP2D6): > 50000 nM; IC50 (CYP2C19): > 50000 nM; IC50 (CYP2C9): > 50000 nM; IC50 (CYP1A2): > 50000 nM; inhibitory effect on CYP3A4 (in words) (CYP3A4): strong inhibitory effect; IC50 (CYP3A4): 750 nM
CCCCOCCOc1ccc(-c2ccc3c(c2)/C=C(/C(=O)Nc2ccc([S@@+]([O-])Cc4cncn4CCC)cc2)CCCN3CC2CC2)cc1 [Reference A, reference compound]	–	–	IC50 (CYP2D6): > 50000 nM; IC50 (CYP2C19): > 50000 nM; IC50 (CYP2C9): > 50000 nM; IC50 (CYP1A2): > 50000 nM; inhibitory effect on CYP3A4 (in words) (CYP3A4): strong inhibitory effect; IC50 (CYP3A4): 786 nM
CCCCOCCOc1ccc(-c2ccc3c(c2)/C=C(/C(=O)Nc2ccc([S@+]([O-])Cc4c(C)ncn4CC)cc2)CCCN3CC2CCOCC2)cc1 [WX001]	1.33	4.25	IC50 (CYP2D6): > 50000 nM; IC50 (CYP2C19): 1420 nM; IC50 (CYP2C9): > 50000 nM; IC50 (CYP1A2): > 50000 nM; inhibitory effect on CYP3A4 (in words) (CYP3A4): no inhibitory effect; IC50 (CYP3A4): > 50000 nM
CCCCOCCOc1ccc(-c2ccc3c(c2)/C=C(/C(=O)Nc2ccc([S@@+]([O-])Cc4c(C)ncn4CC)cc2)CCCN3CC2CCOCC2)cc1 [WX002]	3	–	IC50 (CYP2D6): > 50000 nM; IC50 (CYP2C19): > 50000 nM; IC50 (CYP2C9): 10900 nM; IC50 (CYP1A2): > 50000 nM; IC50 (CYP3A4): 13300 nM; risk of inhibiting the activity of human liver microsomal cytochrome P450 isoenzymes (in words) [1]: no risk of inhibiting the activity
CCCCOCCOc1ccc(-c2ccc3c(c2)C=C(C(=O)Nc2ccc([S@+]([O-])Cc4c(C)ncn4CC)cc2)CCN3CC2CCCOC2)cc1 (some centres unmarked) [WX003]	37	8.27	–
CCCCOCCOc1ccc(-c2ccc3c(c2)/C=C(/C(=O)Nc2ccc([S@+]([O-])Cc4c(C)ncn4CC)cc2)CCCN3CC2COC2)cc1 [WX004]	3.04	6.3	–
CCCCOCCOc1ccc(-c2ccc3c(c2)/C=C(/C(=O)Nc2ccc([S@+]([O-])Cc4c(C)ncn4CC)cc2)CCCCN3CC2COC2)cc1 [WX005]	9.2	4.2	–
CCCCOCCOc1ccc(-c2ccc3c(c2)/C=C(/C(=O)Nc2ccc([S@+]([O-])Cc4c(C)ncn4CC)cc2)CCCCN3CC2CCCOC2)cc1 (some centres unmarked) [WX006]	7.51	8.44	–
CCCCOCCOc1ccc(-c2ccc3c(c2)/C=C(/C(=O)Nc2ccc([S@+]([O-])Cc4c(C)ncn4CC)cc2)CCCCN3CC2CCCOC2)cc1 (some centres unmarked) [WX007]	6.76	6.18	–
CCCCOCCOc1ccc(-c2ccc3c(c2)/C=C(/C(=O)Nc2ccc([S@+]([O-])Cc4c(C)ncn4CC)cc2)CCCN3CC2CCCCO2)cc1 (some centres unmarked) [WX008]	3.4	6.04	–
CCCCOCCOc1ccc(-c2ccc3c(c2)/C=C(/C(=O)Nc2ccc([S@+]([O-])Cc4c(C)ncn4CC)cc2)CCCN3CC2CCN(C)CC2)cc1 [WX009]	4.38	6.78	–
CCCCOCCOc1ccc(-c2ccc3c(c2)/C=C(/C(=O)Nc2ccc([S@+]([O-])Cc4c(C)ncn4CC)cc2)CCCN3CC2CCOC2)cc1 (some centres unmarked) [WX013]	3.11	5.45	–
CCCCOCCOc1ccc(-c2ccc3c(c2)/C=C(/C(=O)Nc2ccc([S@+]([O-])Cc4c(C)ncn4CC)cc2)CCCN3CC2CCOC2)cc1 (some centres unmarked) [WX014]	3.78	6.28	–
CCCCOCCOc1ccc(-c2ccc3c(c2)/C=C(/C(=O)Nc2ccc([S@@+]([O-])Cc4c(C)ncn4CC)cc2)CCCN3CC2CCOCC2)cc1 [WX017]	2.47	–	–
CCCCOCCOc1ccc(-c2ccc3c(c2)C=C(C(=O)Nc2ccc([S@+]([O-])Cc4c(C)ncn4CC)cc2)CCN3CC2CCN(C)CC2)cc1 [WX018]	17.9	3.35	–
CCCCOCCOc1ccc(-c2ccc3c(c2)/C=C(/C(=O)Nc2ccc([S@+]([O-])Cc4c(C)ncn4CC)cc2)CCCN3CC2COCCO2)cc1 (some centres unmarked) [WX025]	0.69	1.38	–
CCCCOCCOc1ccc(-c2ccc3c(c2)/C=C(/C(=O)Nc2ccc([S@+]([O-])Cc4c(C)ncn4CC)cc2)CCCN3CC2COCCO2)cc1 (some centres unmarked) [WX026]	0.69	1.37	–
CCCCOCCOc1ccc(-c2ccc3c(c2)/C=C(/C(=O)Nc2ccc([S@+]([O-])Cc4c(C)ncn4CC)cc2)CCCN3CC2CCCO2)cc1 (some centres unmarked) [WX027]	0.41	1.44	–
CCCCOCCOc1ccc(-c2ccc3c(c2)/C=C(/C(=O)Nc2ccc([S@+]([O-])Cc4c(C)ncn4CC)cc2)CCCN3C[C@H]2CCCO2)cc1 [WX028]	1.19	3.15	–
